Experiments:
Assay in all cases: KINOMEscan
Settings in all cases: read-out: Percent Control
TXK = TXK (Homo sapiens, UniProt P42681)
Procedure: (§1) The kinase engagement assay (KINOMEscan®) was performed by DiscoverX assessing binding abilities toward a set of kinases.

p38-alpha = p38-alpha (Homo sapiens, UniProt Q16539)
Procedure: as §1

CDK2 = CDK2 (Homo sapiens, UniProt P24941)
Procedure: as §1

RET(V804M) = RET(V804M) (Homo sapiens, UniProt P07949, V804M)
Procedure: as §1

CASK = CASK (Homo sapiens, UniProt O14936)
Procedure: as §1

KIT(D816V) = KIT(D816V) (Homo sapiens, UniProt P10721, D816V)
Procedure: as §1

[1] = biological target: RSK4(Kin.Dom.2-C-terminal) (Homo sapiens, UniProt Q9UK32)
Procedure: as §1

DCAMKL3 = DCAMKL3 (Homo sapiens, UniProt Q9C098)
Procedure: as §1

MYO3A = MYO3A (Homo sapiens, UniProt Q8NEV4)
Procedure: as §1

CDK7 = CDK7 (Homo sapiens, UniProt P50613)
Procedure: as §1

CLK1 = CLK1 (Homo sapiens, UniProt P49759)
Procedure: as §1

BTK = BTK (Homo sapiens, UniProt Q06187)
Procedure: as §1

NEK5 = NEK5 (Homo sapiens, UniProt Q6P3R8)
Procedure: as §1

BMPR2 = BMPR2 (Homo sapiens, UniProt Q13873)
Procedure: as §1

MEK6 = MEK6 (Homo sapiens, UniProt P52564)
Procedure: as §1

MUSK = MUSK (Homo sapiens, UniProt O15146)
Procedure: as §1

IGF1R = IGF1R (Homo sapiens, UniProt P08069)
Procedure: as §1

FGR = FGR (Homo sapiens, UniProt P09769)
Procedure: as §1

[2] = biological target: ABL1(Q252H)-phosphorylated (Homo sapiens, UniProt P00519, Q252H)
Procedure: as §1

AMPK-alpha2 = AMPK-alpha2 (Homo sapiens, UniProt P54646)
Procedure: as §1

CDKL1 = CDKL1 (Homo sapiens, UniProt Q00532)
Procedure: as §1

[3] = biological target: RPS6KA4(Kin.Dom.2-C-terminal) (Homo sapiens, UniProt O75676)
Procedure: as §1

MST2 = MST2 (Homo sapiens, UniProt Q13188)
Procedure: as §1

PLK1 = PLK1 (Homo sapiens, UniProt P53350)
Procedure: as §1

NEK9 = NEK9 (Homo sapiens, UniProt Q8TD19)
Procedure: as §1

TGFBR1 = TGFBR1 (Homo sapiens, UniProt P36897)
Procedure: as §1

PLK3 = PLK3 (Homo sapiens, UniProt Q9H4B4)
Procedure: as §1

PDGFRB = PDGFRB (Homo sapiens, UniProt P09619)
Procedure: as §1

LATS1 = LATS1 (Homo sapiens, UniProt O95835)
Procedure: as §1

[4] = biological target: ABL1(F317L)-phosphorylated (Homo sapiens, UniProt P00519, F317L)
Procedure: as §1

EGFR(G719C) = EGFR(G719C) (Homo sapiens, UniProt P00533, G719C)
Procedure: as §1

RET(V804L) = RET(V804L) (Homo sapiens, UniProt P07949, V804L)
Procedure: as §1

IKK-beta = IKK-beta (Homo sapiens, UniProt O14920)
Procedure: as §1

PAK2 = PAK2 (Homo sapiens, UniProt Q13177)
Procedure: as §1

KIT = KIT (Homo sapiens, UniProt P10721)
Procedure: as §1

ERK4 = ERK4 (Homo sapiens, UniProt P31152)
Procedure: as §1

EPHB3 = EPHB3 (Homo sapiens, UniProt P54753)
Procedure: as §1

PLK4 = PLK4 (Homo sapiens, UniProt O00444)
Procedure: as §1

PDGFRB, sequence (P09619 33-1106): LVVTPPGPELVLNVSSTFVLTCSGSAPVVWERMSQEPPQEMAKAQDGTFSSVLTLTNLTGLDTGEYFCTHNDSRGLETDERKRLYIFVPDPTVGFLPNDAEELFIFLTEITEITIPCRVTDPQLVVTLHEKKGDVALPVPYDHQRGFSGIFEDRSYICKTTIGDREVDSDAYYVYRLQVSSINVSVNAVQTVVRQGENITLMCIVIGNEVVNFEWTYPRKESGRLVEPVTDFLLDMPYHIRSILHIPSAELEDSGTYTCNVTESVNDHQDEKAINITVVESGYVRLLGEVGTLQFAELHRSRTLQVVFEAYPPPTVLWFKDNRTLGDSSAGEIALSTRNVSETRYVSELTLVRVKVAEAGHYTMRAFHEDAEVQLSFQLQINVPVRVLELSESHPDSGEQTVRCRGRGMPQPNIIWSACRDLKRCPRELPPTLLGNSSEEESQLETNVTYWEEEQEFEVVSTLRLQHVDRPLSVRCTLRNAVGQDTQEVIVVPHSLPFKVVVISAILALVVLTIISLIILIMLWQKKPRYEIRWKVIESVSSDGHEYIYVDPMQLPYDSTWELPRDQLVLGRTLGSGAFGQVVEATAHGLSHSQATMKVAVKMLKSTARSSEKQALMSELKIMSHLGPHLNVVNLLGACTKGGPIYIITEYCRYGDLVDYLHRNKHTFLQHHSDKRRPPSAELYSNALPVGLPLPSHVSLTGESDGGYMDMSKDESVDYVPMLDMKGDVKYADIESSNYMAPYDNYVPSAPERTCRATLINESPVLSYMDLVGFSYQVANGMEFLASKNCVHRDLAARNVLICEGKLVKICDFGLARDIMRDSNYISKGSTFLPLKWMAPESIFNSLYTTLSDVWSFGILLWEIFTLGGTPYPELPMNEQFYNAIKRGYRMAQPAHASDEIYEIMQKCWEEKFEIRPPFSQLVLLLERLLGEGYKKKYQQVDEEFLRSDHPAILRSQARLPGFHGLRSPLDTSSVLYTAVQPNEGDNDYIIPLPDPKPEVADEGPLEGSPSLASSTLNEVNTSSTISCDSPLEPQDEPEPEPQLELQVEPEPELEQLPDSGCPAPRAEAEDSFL
CASK, sequence (O14936 whole entry): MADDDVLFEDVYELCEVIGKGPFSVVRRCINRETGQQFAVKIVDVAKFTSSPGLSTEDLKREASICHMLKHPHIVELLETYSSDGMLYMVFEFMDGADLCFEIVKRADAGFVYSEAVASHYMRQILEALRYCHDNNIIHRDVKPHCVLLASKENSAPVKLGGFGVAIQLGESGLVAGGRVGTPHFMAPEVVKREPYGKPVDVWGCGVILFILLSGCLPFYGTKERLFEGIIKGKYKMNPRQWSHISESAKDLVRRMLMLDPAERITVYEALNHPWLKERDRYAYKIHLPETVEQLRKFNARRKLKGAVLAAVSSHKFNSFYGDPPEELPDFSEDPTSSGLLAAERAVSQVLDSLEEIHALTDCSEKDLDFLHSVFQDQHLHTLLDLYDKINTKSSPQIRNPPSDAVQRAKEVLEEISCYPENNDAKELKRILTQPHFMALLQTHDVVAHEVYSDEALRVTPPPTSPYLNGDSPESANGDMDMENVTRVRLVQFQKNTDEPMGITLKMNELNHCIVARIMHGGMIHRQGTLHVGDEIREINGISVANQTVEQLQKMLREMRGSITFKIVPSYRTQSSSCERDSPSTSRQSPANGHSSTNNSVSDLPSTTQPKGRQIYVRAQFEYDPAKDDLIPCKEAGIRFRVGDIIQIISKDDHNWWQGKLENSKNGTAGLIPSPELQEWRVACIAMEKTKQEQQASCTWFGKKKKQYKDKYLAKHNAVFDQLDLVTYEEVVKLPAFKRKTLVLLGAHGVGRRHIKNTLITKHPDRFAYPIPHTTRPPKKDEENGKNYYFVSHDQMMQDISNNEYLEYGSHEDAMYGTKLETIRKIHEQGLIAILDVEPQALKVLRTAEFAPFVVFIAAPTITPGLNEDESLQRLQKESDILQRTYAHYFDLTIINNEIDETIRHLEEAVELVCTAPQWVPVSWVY
TXK, sequence (P42681 whole entry): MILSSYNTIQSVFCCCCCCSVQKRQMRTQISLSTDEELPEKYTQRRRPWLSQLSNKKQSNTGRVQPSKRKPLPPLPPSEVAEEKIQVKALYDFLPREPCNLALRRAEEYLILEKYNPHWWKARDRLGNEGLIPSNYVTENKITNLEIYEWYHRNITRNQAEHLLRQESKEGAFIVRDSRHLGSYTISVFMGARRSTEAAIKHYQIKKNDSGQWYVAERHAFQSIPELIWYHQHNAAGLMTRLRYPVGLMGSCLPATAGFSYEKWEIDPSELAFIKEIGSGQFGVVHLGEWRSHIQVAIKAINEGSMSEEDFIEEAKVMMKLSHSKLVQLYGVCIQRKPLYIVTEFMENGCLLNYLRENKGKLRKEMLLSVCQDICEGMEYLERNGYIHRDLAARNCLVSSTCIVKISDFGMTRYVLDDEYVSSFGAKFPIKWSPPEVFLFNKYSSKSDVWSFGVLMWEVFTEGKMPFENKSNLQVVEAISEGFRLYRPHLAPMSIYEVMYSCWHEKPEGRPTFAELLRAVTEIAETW
IGF1R, sequence (P08069 31-1367): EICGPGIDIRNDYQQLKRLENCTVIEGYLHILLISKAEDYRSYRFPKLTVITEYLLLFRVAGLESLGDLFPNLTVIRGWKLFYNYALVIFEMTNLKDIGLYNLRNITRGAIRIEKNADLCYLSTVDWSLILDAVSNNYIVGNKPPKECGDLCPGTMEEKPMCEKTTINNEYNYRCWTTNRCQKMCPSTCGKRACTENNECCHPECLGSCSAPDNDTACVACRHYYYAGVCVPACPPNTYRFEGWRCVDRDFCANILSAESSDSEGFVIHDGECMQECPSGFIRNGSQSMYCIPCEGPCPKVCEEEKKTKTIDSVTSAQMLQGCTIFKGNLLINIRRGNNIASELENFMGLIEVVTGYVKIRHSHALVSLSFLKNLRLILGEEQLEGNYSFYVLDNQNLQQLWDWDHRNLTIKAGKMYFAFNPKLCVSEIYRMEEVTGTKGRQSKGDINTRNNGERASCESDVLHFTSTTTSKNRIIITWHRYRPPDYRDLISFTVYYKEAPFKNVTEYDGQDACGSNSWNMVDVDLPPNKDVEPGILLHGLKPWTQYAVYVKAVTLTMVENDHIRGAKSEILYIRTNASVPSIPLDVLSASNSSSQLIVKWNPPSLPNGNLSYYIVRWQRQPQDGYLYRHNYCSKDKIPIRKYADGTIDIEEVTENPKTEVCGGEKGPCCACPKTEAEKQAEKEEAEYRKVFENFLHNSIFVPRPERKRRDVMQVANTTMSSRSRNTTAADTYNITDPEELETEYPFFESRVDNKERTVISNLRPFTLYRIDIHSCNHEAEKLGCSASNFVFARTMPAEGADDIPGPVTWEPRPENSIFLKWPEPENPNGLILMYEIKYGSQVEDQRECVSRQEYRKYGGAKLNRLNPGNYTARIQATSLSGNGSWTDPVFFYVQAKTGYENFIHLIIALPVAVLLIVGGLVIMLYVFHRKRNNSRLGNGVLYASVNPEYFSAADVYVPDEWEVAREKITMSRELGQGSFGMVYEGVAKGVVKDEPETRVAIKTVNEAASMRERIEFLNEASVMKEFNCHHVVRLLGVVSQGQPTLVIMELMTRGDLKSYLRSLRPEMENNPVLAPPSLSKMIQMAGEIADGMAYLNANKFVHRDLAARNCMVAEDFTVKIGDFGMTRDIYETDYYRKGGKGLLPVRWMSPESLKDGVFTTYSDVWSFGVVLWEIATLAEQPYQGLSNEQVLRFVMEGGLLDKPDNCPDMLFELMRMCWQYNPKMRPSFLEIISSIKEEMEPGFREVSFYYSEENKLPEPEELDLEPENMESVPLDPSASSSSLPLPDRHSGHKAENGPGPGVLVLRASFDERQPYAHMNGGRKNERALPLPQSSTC
NEK9, sequence (Q8TD19 whole entry): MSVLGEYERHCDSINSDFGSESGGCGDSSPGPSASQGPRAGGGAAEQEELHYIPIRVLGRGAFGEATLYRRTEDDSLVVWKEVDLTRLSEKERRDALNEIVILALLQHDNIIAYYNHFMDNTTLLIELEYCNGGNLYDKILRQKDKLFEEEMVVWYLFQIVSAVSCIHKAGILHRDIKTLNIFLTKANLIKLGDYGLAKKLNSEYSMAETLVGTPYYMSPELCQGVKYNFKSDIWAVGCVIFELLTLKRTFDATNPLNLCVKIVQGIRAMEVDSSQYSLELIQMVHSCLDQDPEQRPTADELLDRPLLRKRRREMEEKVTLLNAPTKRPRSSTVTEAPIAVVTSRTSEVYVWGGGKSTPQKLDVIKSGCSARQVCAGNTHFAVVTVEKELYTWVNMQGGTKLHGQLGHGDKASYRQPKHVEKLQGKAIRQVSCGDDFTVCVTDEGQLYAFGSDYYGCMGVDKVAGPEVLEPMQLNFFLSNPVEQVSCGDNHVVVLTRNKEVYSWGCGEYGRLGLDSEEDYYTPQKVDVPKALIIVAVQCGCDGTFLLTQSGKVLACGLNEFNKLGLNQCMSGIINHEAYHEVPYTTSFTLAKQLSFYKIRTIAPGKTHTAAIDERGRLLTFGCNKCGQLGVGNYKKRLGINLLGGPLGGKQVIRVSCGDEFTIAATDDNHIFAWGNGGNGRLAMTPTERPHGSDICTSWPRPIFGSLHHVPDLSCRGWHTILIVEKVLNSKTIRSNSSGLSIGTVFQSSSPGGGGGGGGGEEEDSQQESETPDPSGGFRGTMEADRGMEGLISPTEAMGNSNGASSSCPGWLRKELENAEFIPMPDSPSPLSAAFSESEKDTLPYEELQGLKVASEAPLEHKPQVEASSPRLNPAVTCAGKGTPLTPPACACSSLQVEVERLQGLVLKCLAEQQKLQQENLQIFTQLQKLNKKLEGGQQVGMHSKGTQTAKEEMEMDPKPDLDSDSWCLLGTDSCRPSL
RSK4(Kin.Dom.2-C-terminal), sequence (Q9UK32 426-683 limits assumed): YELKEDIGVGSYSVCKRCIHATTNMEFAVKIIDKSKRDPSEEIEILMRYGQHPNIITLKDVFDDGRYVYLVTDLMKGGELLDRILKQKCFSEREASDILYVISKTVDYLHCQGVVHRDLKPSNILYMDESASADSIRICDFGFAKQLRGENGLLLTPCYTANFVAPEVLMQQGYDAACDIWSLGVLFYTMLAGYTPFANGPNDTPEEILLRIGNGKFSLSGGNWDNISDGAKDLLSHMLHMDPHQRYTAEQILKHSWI

Which results are given for `O=C1CCC(N2C(=O)c3cccc(NCCCCCCCCNC(=O)N4CC[C@H](NC5=Nc6cc(F)ccc6N(CC(F)F)c6ccc(Cl)cc65)C4)c3C2=O)C(=O)N1` (stereo partly drawn) [BJG-05-039, (3S)-3-((2-Chloro-5-(2,2-difluoroethyl)-8-fluoro-5H-dibenzo[b,e][1,4]diazepin-11-yl)amino)-N-(8-((2-(2,6-dioxopiperidin-3-yl)-1,3-dioxoisoindolin-4-yl)amino)octyl)pyrrolidine-1-carboxamide]?
remaining binding at 10 µM (TXK): 90%; remaining binding at 10 µM (p38-alpha): 60%; remaining binding at 10 µM (CDK2): 69%; remaining binding at 10 µM (RET(V804M)): 59%; remaining binding at 10 µM (CASK): 99%; remaining binding at 10 µM (KIT(D816V)): 87%; remaining binding at 10 µM [1]: 45%; remaining binding at 10 µM (DCAMKL3): 79%; remaining binding at 10 µM (MYO3A): 67%; remaining binding at 10 µM (CDK7): 100%; remaining binding at 10 µM (CLK1): 57%; remaining binding at 10 µM (BTK): 100%; remaining binding at 10 µM (NEK5): 65%; remaining binding at 10 µM (BMPR2): 100%; remaining binding at 10 µM (MEK6): 86%; remaining binding at 10 µM (MUSK): 60%; remaining binding at 10 µM (IGF1R): 70%; remaining binding at 10 µM (FGR): 82%; remaining binding at 10 µM [2]: 100%; remaining binding at 10 µM (AMPK-alpha2): 100%; remaining binding at 10 µM (CDKL1): 99%; remaining binding at 10 µM [3]: 99%; remaining binding at 10 µM (MST2): 80%; remaining binding at 10 µM (PLK1): 82%; remaining binding at 10 µM (NEK9): 82%; remaining binding at 10 µM (TGFBR1): 100%; remaining binding at 10 µM (PLK3): 99%; remaining binding at 10 µM (PDGFRB): 86%; remaining binding at 10 µM (LATS1): 100%; remaining binding at 10 µM [4]: 100%; remaining binding at 10 µM (EGFR(G719C)): 83%; remaining binding at 10 µM (RET(V804L)): 99%; remaining binding at 10 µM (IKK-beta): 94%; remaining binding at 10 µM (PAK2): 87%; remaining binding at 10 µM (KIT): 82%; remaining binding at 10 µM (ERK4): 52%; remaining binding at 10 µM (EPHB3): 89%; remaining binding at 10 µM (PLK4): 85%

Reference: patent publication US20250312462A1, “PAK1 DEGRADERS AND METHODS OF USE THEREOF” (INSTITUTE FOR CANCER RESEARCH D/B/A THE RESEARCH INSTITUTE …, priority 2022, published 2025)
